Experimental data published in patent US11317626B2, “Forchlorfenuron mixtures and uses thereof” (Valent BioSciences LLC, priority 2018, dated 2022).

Experiments:
Type in all cases: in vivo
[1] = tested on: Concord grape vines; experiment: Example 1: bud break and shoot growth of potted Concord grape vines in greenhouse; details: for Broken Buds/Plant / FW/Broken Bud: 51 days post-treatment; for FW/Plant: combined shoot fresh weight at 51 DAT; for 50% BB: days from application to 50% of the plants showing at least one bud broken; for 0-50% BB: days from bud break on the first plant to 50% of the plants with bud break, synchrony
Source text: An aqueous 50% hydrogen cyanamide solution (Sigma-Aldrich, St. Louis, Mo. USA) was used as the source of hydrogen cyanamide (“HC”). The commercial product, Dormex® contains 50% hydrogen cyanamide (w/v) in an aqueous base.
Erger® was used as the source of 15-0-0 fertilizer. Erger® contains 15% total nitrogen as 3.1% ammoniacal nitrogen, 5.8% nitrate nitrogen, 6.1% urea nitrogen and 3.3% calcium derived from a mixture of ammonium nitrate, calcium nitrate and urea. Erger® is always used in combination with either 20% (w/v) Ca(NO3)2 or Activ Erger®. In the following examples, 15-0-0 fertilizer was applied at a rate of 208,340 ppm calcium nitrate, 15,060 ppm nitrogen nitrate and 15,660 ppm urea or 239,060 ppm total.
CAN-17 was used as the 17-0-0 fertilizer. CAN-17 contains 17% total nitrogen as 4.6% ammonium nitrogen and 11.6% nitrate nitrogen and 1.3% urea nitrogen and 8.8% calcium derived from ammonium nitrate and calcium nitrate. CAN-17 is available from J. R. Simplot Company (Boise, Id., USA). In the following examples, 17-0-0 fertilizer was applied at a rate of 118,200 ppm calcium nitrate and 78,900 ppm nitrogen nitrate or 197,100 ppm total. See, Table 1 below, for ratios of forchlorfenuron (“CPPU”) to fertilizer that were used in the following examples.
To assess the ability of mixtures of the invention to promote and synchronize bud break these mixtures were applied to Concord grape vines and examined for bud break (initiation of growth) and subsequent shoot development. Specifically, dormant bare-rooted Concord grape vines were planted in pots containing Pro-Mix® BX potting soil (Pro-Mix is a registered trademark of and available from Premier Horticulture Ltd.) and pruned to five nodes on a single shoot of one-year-old wood. Nodes are regions on the shoot where leaves arise from the shoot and buds are present at the axis of the shoot:leaf interface. The bud found at the shoot:leaf interface develops into the vines new shoot growth. Aqueous solutions of forchlorfenuron, HC, 15-0-0 fertilizer, 17-0-0 fertilizer, and mixtures thereof were each applied individually or sequentially or co-applied to the first-year wood of separate Concord grape vines. Plants were grown in a heated greenhouse for 49 days and evaluated for percent of vines showing bud break, periodically between seven days after application and the conclusion of the experiment. Percent bud break is determined by the number of plants that have at least one bud broken divided by the total number of plants per treatment times 100. At 51 days after treatment (“DAT”), the plants were sacrificed and measured for total number of flower clusters, total new shoot length, longest new shoot, combined new shoot fresh weight. New shoot growth is the growth arising from the dormant buds not including the woody growth that was planted and gave rise to the new growth.
(§1) To determine if the mixtures provided unexpected results, the observed combined efficacy (“OCE”) was divided by the expected combined efficacy (“ECE”) wherein the expected ECE is calculated by the Abbott method: ECE=A+B−(AB/100), • wherein ECE is the expected combined efficacy and in which A and B are the speed of bud break relative to control, the number of buds broken per plant relative to control, shoot length relative to control or shoot weight relative to control given by the single active ingredients. If the ratio between the OCE of the mixture and the ECE of the mixture is greater than 1, then greater than expected interactions are present in the mixture. (Gisi, Synergistic Interaction of Fungicides in Mixtures, The American Phytopathological Society, 86:11, 1273-1279,1996). Results

[2] = tested on: Concord grape vines; experiment: Example 2: Concord grape vines greenhouse, forchlorfenuron and 15-0-0 fertilizer (Erger) study; details: for Fresh Weight at Harvest: combined shoot fresh weight, 52 days after planting; for 50% BB: days after treatment to 50% bud break; for Average Number of Broken Nodes Per Plant at Harvest: harvest 52 days after planting
Source text: To assess the ability of mixtures of the invention to promote and synchronize bud break these mixtures were applied to Concord grape vines and examined for bud break (initiation of growth) and subsequent shoot development. Specifically, dormant bare-rooted Concord grape vines were planted in pots containing Pro-Mix® BX potting soil (Pro-Mix is a registered trademark of and available from Premier Horticulture Ltd.) and pruned to five nodes on a single shoot of one-year-old wood. Nodes are regions on the shoot where leaves arise from the shoot and buds are present at the axis of the shoot:leaf interface. The bud found at the shoot:leaf interface develops into the vines new shoot growth. Aqueous solutions of forchlorfenuron, HC, 15-0-0 fertilizer, 17-0-0 fertilizer, and mixtures thereof were each applied individually or sequentially or co-applied to the first-year wood of separate Concord grape vines. […] Percent bud break is determined by the number of plants that have at least one bud broken divided by the total number of plants per treatment times 100. […] New shoot growth is the growth arising from the dormant buds not including the woody growth that was planted and gave rise to the new growth.
as §1
The experiment from Example 1 was repeated with varying quantities of forchlorfenuron and fertilizers in a greenhouse experiment.

[3] = tested on: Prunus (stone fruit) plants; experiment: Example 5: bud break and shoot growth of Prunus (stone fruit) plants in greenhouse; details: for Fresh Weight at Harvest, FW: combined new shoot fresh weight, harvest at 28 days; for 50% BB: days after treatment to 50% bud break
Method: as §1
To assess the ability of mixtures of the invention to promote and synchronize bud break, these mixtures were applied to Prunus (stone fruit) plants in the greenhouse and examined for bud break (initiation of growth) and subsequent shoot development. Forchlorfenuron, Dormex (50% HC), 15-0-0 (Erger®) and 17-0-0 fertilizers (CAN17), and mixtures thereof were each applied individually or sequentially (co-applied) to the shoots of Prunus plants. Plants were evaluated for bud break at 28 days after treatment.

SMILES: O=C(Nc1ccccc1)Nc1ccnc(Cl)c1 [CPPU, N-(2-Chloro-4-pyridyl)-N′-phenylurea]
- Percentage of Concord Grape Vines with Dormancy Relieved ([1]; 31 days after treatment, plants with at least one bud showing a green shoot emerging, listed as CPPU 100 ppm): 25%
- Percentage of Concord Grape Vines with Dormancy Relieved ([1]; 31 days after treatment, plants with at least one bud showing a green shoot emerging, listed as CPPU 300 ppm): 12.5%
- Percentage of Concord Grape Vines with Dormancy Relieved ([1]; 31 days after treatment, plants with at least one bud showing a green shoot emerging, listed as CPPU 1000 ppm): 37.5%
- Percentage of Concord Grape Vines with Dormancy Relieved ([1]; 34 days after treatment, listed as CPPU 100 ppm): 50%
- Percentage of Concord Grape Vines with Dormancy Relieved ([1]; 34 days after treatment, listed as CPPU 300 ppm): 37.5%
- Percentage of Concord Grape Vines with Dormancy Relieved ([1]; 34 days after treatment, listed as CPPU 1000 ppm): 62.5%
- Percentage of Concord Grape Vines with Dormancy Relieved ([1]; 36 days after treatment, listed as CPPU 100 ppm): 50%
- Percentage of Concord Grape Vines with Dormancy Relieved ([1]; 36 days after treatment, listed as CPPU 300 ppm): 50%
- Percentage of Concord Grape Vines with Dormancy Relieved ([1]; 36 days after treatment, listed as CPPU 1000 ppm): 62.5%
- Percentage of Concord Grape Vines with Dormancy Relieved ([1]; 38 days after treatment, listed as CPPU 100 ppm): 50%
- Percentage of Concord Grape Vines with Dormancy Relieved ([1]; 38 days after treatment, listed as CPPU 300 ppm): 50%
- Percentage of Concord Grape Vines with Dormancy Relieved ([1]; 38 days after treatment, listed as CPPU 1000 ppm): 75%
- Percentage of Concord Grape Vines with Dormancy Relieved ([1]; 43 days after treatment, listed as CPPU 100 ppm): 75%
- Percentage of Concord Grape Vines with Dormancy Relieved ([1]; 43 days after treatment, listed as CPPU 300 ppm): 62.5%
- Percentage of Concord Grape Vines with Dormancy Relieved ([1]; 43 days after treatment, listed as CPPU 1000 ppm): 87.5%
- Percentage of Concord Grape Vines with Dormancy Relieved ([1]; 45 days after treatment, listed as CPPU 100 ppm): 75%
- Percentage of Concord Grape Vines with Dormancy Relieved ([1]; 45 days after treatment, listed as CPPU 300 ppm): 62.5%
- Percentage of Concord Grape Vines with Dormancy Relieved ([1]; 45 days after treatment, listed as CPPU 1000 ppm): 87.5%
- Percentage of Concord Grape Vines with Dormancy Relieved ([1]; 51 days after treatment, listed as CPPU 100 ppm): 87.5%
- Percentage of Concord Grape Vines with Dormancy Relieved ([1]; 51 days after treatment, listed as CPPU 300 ppm): 62.5%
- Percentage of Concord Grape Vines with Dormancy Relieved ([1]; 51 days after treatment, listed as CPPU 1000 ppm): 87.5%
- Broken Buds/Plant ([1]; listed as CPPU 100 ppm): 1.71
- FW/Broken Bud ([1]; listed as CPPU 100 ppm): 4.73 grams
- Broken Buds/Plant ([1]; listed as CPPU 300 ppm): 2.00
- FW/Broken Bud ([1]; listed as CPPU 300 ppm): 4.69 grams
- Broken Buds/Plant ([1]; listed as CPPU 1000 ppm): 1.29
- FW/Broken Bud ([1]; listed as CPPU 1000 ppm): 9.51 grams
- FW/Plant ([1]; listed as CPPU 100 ppm): 8.11 grams
- FW/Plant ([1]; listed as CPPU 300 ppm): 9.39 grams
- FW/Plant ([1]; listed as CPPU 1000 ppm): 12.22 grams
- 50% BB ([1]; listed as CPPU 100 ppm): 34 days
- 50% BB ([1]; listed as CPPU 300 ppm): 36 days
- 50% BB ([1]; listed as CPPU 1000 ppm): 34 days
- 0-50% BB ([1]; listed as CPPU 100 ppm): 10 days
- 0-50% BB ([1]; listed as CPPU 300 ppm): 7 days
- 0-50% BB ([1]; listed as CPPU 1000 ppm): 14 days
- Fresh Weight at Harvest ([2]; listed as CPPU 300 ppm): 18.04 grams
- Fresh Weight at Harvest ([2]; listed as CPPU 600 ppm): 18.54 grams
- Fresh Weight at Harvest ([2]; listed as CPPU 1000 ppm): 29.13 grams
- 50% BB ([2]; listed as CPPU 300 ppm): 26 days
- 50% BB ([2]; listed as CPPU 600 ppm): 31 days
- 50% BB ([2]; listed as CPPU 1000 ppm): 24 days
- Average Number of Broken Nodes Per Plant at Harvest ([2]; listed as CPPU 300 ppm): 1.25
- Average Number of Broken Nodes Per Plant at Harvest ([2]; listed as CPPU 600 ppm): 1.88
- Average Number of Broken Nodes Per Plant at Harvest ([2]; listed as CPPU 1000 ppm): 2.63
- Fresh Weight at Harvest, FW ([3]; listed as CPPU 300 ppm): 1.34 grams
- Fresh Weight at Harvest, FW ([3]; listed as CPPU 600 ppm): 4.91 grams
- 50% BB ([3]; listed as CPPU 300 ppm): 14 days
- 50% BB ([3]; listed as CPPU 600 ppm): 10 days
